# According to publication PMC7335050, “Characterization of an alternative BAK-binding site for BH3 peptides” (Nature Communications, 2020):
# Several values for one entry are separate records, joined by “and”; a condition that tells them apart may be missing. Equal values may be shown once. Entries after “also recorded” stand apart in the source; their conditions may differ. Residues, ends and D or L forms follow the SMILES beside them.
# Tests used:
# BAKΔTM = biological target: T1, BAKΔTM (Homo sapiens, UniProt Q16611); test: SPR binding of BH3 peptides to immobilized BAKΔTM; details: for Kd: BAKΔTM immobilized on CM5 chip, steady-state analysis, three independent SPR assays, top concentrations not threefold above KD, read-out: Approximate dissociation constant ranges, KDs for BAK
# T1 construct: BAKΔTM (GenBank BC004431, residues 1–186); His6; made in house; host or cells: E. coli BL21
# T1 sequence (Q16611 1-186): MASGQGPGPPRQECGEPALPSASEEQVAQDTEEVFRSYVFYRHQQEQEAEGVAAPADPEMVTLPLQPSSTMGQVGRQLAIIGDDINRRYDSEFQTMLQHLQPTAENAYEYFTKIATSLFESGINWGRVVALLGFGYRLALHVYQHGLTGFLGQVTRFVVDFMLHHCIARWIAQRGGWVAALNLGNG
# BAK (His6-BAKΔTM) = test: Liposome permeabilization assay (FITC-dextran release) with BAK; assay type: biochemical, human; details: 50 nM BAK + 50 nM BH3 peptide
# Description: (§1) 1-Palmitoyl-2-oleoyl-sn-glycero-3-phosphocholine, 1-plamitoyl-2-oleoyl-sn-glycero-3-phosphoethanolamine, L-α-phosphatidyl-inositol, cardiolipin, cholesterol and 18:1 DGS-NTA(Ni) were mixed at a weight ratio of 36:22:9:8:20:5, and dried as thin films in glass test tubes under nitrogen for 16 h. To encapsulate FITC-labeled dextran 10 (F-d10), 50 mg F-d10 was added to 50 mg lipid in 1 ml of 150 KCl buffer containing 20 mM HEPES (pH 7.0), sonicated and extruded 15 times through a 400 nm polycarbonate membrane. Liposomes with F-d10 were further purified by gel filtration on Sephacryl S-300 HR (GE Healthcare). Phosphate was determined by colorimetric assay (Abcam, Cambridge, UK).
# (§2) Release of F-d10 from large unilamellar vesicles (LUVs) was monitored by fluorescence dequenching[25] using a fluorimetric plate reader (Thermo Scientific) with SoftMax Pro software. After addition of purified His6-BAKΔTM and/or the BH3 peptides to LUVs (final lipid concentration 10 µg ml^−1), 96 well plates were incubated at 37 °C and recorded (excitation 485 nm, emission 538 nm) every 10 sec. FITC-labeled dextran release was calculated using the equation ((Fsample − Fblank)/(FTriton − Fblank) × 100%), where Fsample, Fblank, and FTriton are the fluorescence recorded for the reagent-, buffer-, and 1% Triton-treated LUVs, respectively.
# human BAKΔTM = test: Cytochrome c release from mitochondria of Bak−/−Bax−/− MEFs plus purified human BAKΔTM; assay type: biochemical; details: 2 μM His6-BAKΔTM, 5 μM BH3 peptide, 25 °C, 90 min, immunoblotting
# Description: (§3) Mitochondria[43] purified from Bax^−/− MEFs were incubated with the indicated concentrations of navitoclax, S63845 or BH3 peptides at 25 °C for 90 min. After centrifugation (10,000 g, 15 min) and washing, supernatants and pellets were analyzed by immunoblotting. Alternatively, His6-BAKΔTM was dialyzed against mitochondria (mito) buffer (150 mM KCl, 5 mM MgCl2, 1 mM EGTA, 25 mM HEPES, pH 7.5) and diluted into mito buffer with 5 mM DTT. Mitochondria purified from Bak^−/−Bax^−/− MEFs were then incubated with 2 μM His6-BAKΔTM and the indicated BH3 peptides (5 μM) at 25 °C for 90 min. After centrifugation (10,000 × g, 15 min) and washing, supernatants and pellets were analyzed by immunoblotting.
# BAK F161A = details: SPR, ~4000 RU immobilized, series of peptide concentrations, three independent experiments
# From the text: (§4) Plasmids encoding BAKΔTM (GenBank BC004431, residues 1–186) in pET29b(+) was kindly provided by Qian Liu and Kalle Gehring (McGill University, Montreal, Canada)[34]. Plasmids encoding BAK 15–186 and the corresponding BAK mutants were generated using site-directed mutagenesis. All plasmids were subjected to automated sequencing to verify the described alterations and confirm that no additional mutations were present.
# (§5) Proteins for SPR were further purified by FPLC on Superdex S200, concentrated in a centrifugal concentrator (Centricon, Millipore), dialyzed against Biacore buffer (10 mM 4-(2-hydroxyethyl)-1-piperazineethanesulfonic acid (HEPES; pH 7.4), 150 mM NaCl, 0.05 mM ethylenediaminetetraacetic acid (EDTA) and 0.005% (w/v) polysorbate 20) and stored at 4 °C for <48 h before use.
# (§6) BAKΔTM or mutants were immobilized on a CM5 chip using a Biacore T200 biosensor with a blank channel as a negative control. Binding assays were performed at 25 °C using Biacore buffer containing the indicated BH3 peptides injected at 30 µl per min for 1 min using a Biacore T200 Control Software. Proteins were allowed to dissociate during perfusion with Biacore buffer at 30 µl per min for 10 min and then desorbed with 2 M MgCl2. All binding affinities were derived by Biacore T200 Evaluation Software using Steady State analysis (Biacore, Uppsala, Sweden).
# BAK F93E = details: SPR, about 4000 RU immobilized, series of peptide concentrations, three independent experiments
# From the text: as §4, §5, §6
# BAK G126S = details: SPR, about 4000 RU immobilized, series of peptide concentrations, three independent experiments
# From the text: as §4, §5, §6
# BAK H164A/H165A = details: SPR, ~4000 RU immobilized, series of peptide concentrations, three independent experiments
# From the text: as §4, §5, §6
# BAKΔTM F161A = test: Liposome permeabilization assay with BAKΔTM F161A; assay type: biochemical, human; details: 50 nM BAKΔTM F161A vs WT, 50 nM BH3 peptide, three independent experiments
# Description: as §1, §2
# [1] = tested on: Bak in mitochondria from Bax−/− MEFs; test: Cytochrome c release from mitochondria of Bax−/− MEFs; assay type: biochemical, mouse
# Description: as §3
# [2] = 90 min at 25 °C, immunoblotting of supernatants and pellets
structure (smiles),measurement,setting,value
CC[C@H](C)[C@H](NC(=O)[C@H](CS)NC(=O)[C@H](CCC(N)=O)NC(=O)[C@H](CC(C)C)NC(=O)[C@H](CCCCN)NC(=O)[C@H](CCCNC(=N)N)NC(=O)[C@H](C)NC(=O)[C@@H](NC(=O)[C@H](CCC(N)=O)NC(=O)[C@@H](NC(=O)[C@H](CCC(=O)O)NC(=O)[C@H](C)NC(=O)[C@@H](N)CCC(N)=O)C(C)C)[C@@H](C)CC)C(=O)N[C@@H](C)C(=O)N[C@@H](CC(=O)O)C(=O)N[C@@H](CCC(N)=O)C(=O)N[C@@H](Cc1ccccc1)C(=O)N[C@@H](Cc1c[nH]cn1)C(=O)N[C@@H](CCCNC(=N)N)C(=O)N[C@@H](CC(C)C)C(=O)N[C@@H](Cc1c[nH]cn1)C(=O)N[C@H](C(=O)N[C@@H](CCC(N)=O)C(=O)N[C@@H](CCC(N)=O)C(=O)N[C@@H](Cc1c[nH]cn1)C(=O)N[C@@H](CCC(N)=O)C(=O)O)C(C)C [BMF BH3] (H-QAEVQIARKLQCIADQFHRLHVQQHQ-OH; N-terminus and C-terminus assumed),Kd,"BAKΔTM; SPR, 25 °C",400 to 600 nM and < 1000 nM
same,"Association and dissociation, direct comparison of SPR curves","BAKΔTM; peptides at 1600 nM, immobilized BAKΔTM",fastest association with BAKΔTM and slowest dissociation
same,BAK-dependent release of liposome contents (FITC-dextran release),"BAK (His6-BAKΔTM); 37 °C, fluorescence dequenching, BAK alone 28%, mean of three independent experiments",46%
same,"Cytochrome c release, in words",human BAKΔTM,intermediate amount
same,Effect of BAK F161A mutation on peptide binding (maximum RU) vs WT BAKΔTM,BAK F161A,diminished binding
same,Effect of BAK F93E mutation on peptide binding (maximum RU) vs WT BAKΔTM,BAK F93E,did not appreciably affect binding
same,Effect of BAK G126S mutation on peptide binding (maximum RU) vs WT BAKΔTM,BAK G126S,did not appreciably affect binding
same,Effect of BAK H164A/H165A mutation on peptide binding (maximum RU) vs WT BAKΔTM,BAK H164A/H165A,diminished binding
same,Effect of F161A mutation on BAK-mediated liposome permeabilization initiated by the peptide,BAKΔTM F161A,markedly decreased
"CC[C@H](C)[C@H](NC(=O)[C@H](CCC(=O)O)NC(=O)[C@H](CCCNC(=N)N)NC(=O)[C@H](C)NC(=O)[C@H](Cc1c[nH]c2ccccc12)NC(=O)[C@@H](N)CCC(N)=O)C(=O)NCC(=O)N[C@@H](C)C(=O)N[C@@H](CCC(N)=O)C(=O)N[C@@H](CC(C)C)C(=O)N[C@@H](CCCNC(=N)N)C(=O)N[C@@H](CCCNC(=N)N)C(=O)N[C@@H](CCSC)C(=O)N[C@@H](C)C(=O)N[C@@H](CC(=O)O)C(=O)N[C@@H](CC(=O)O)C(=O)N[C@@H](CC(C)C)C(=O)N[C@@H](CC(N)=O)C(=O)N[C@@H](C)C(=O)N[C@@H](CCC(N)=O)C(=O)N[C@@H](Cc1ccc(O)cc1)C(=O)N[C@@H](CCC(=O)O)C(=O)N[C@@H](CCCNC(=N)N)C(=O)N[C@@H](CCCNC(=N)N)C(=O)N[C@@H](CCCNC(=N)N)C(=O)N[C@@H](CCC(N)=O)C(=O)O [PUMA BH3, reference compound]",Kd,"BAKΔTM; SPR, 25 °C",2000 to 2800 nM
same,Effect of F161A mutation on BAK-mediated liposome permeabilization initiated by the peptide,BAKΔTM F161A,did not affect
CC[C@H](C)[C@H](NC(=O)[C@H](CS)NC(=O)[C@H](C)NC(=O)[C@H](CC(C)C)NC(=O)[C@H](CCCNC(=N)N)NC(=O)[C@H](CC(C)C)NC(=O)[C@H](C)NC(=O)[C@H](CC(C)C)NC(=O)[C@H](C)NC(=O)[C@H](CC(=O)O)NC(=O)[C@H](CO)NC(=O)CNC(=O)[C@@H](N)CCC(=O)O)C(=O)NCC(=O)N[C@@H](CC(=O)O)C(=O)N[C@@H](CCC(=O)O)C(=O)N[C@@H](CCSC)C(=O)N[C@@H](CC(=O)O)C(=O)N[C@H](C(=O)N[C@@H](CO)C(=O)N[C@@H](CC(C)C)C(=O)N[C@@H](CCCNC(=N)N)C(=O)N[C@@H](C)C(=O)N1CCC[C@H]1C(=O)N[C@@H](CCCNC(=N)N)C(=O)O)C(C)C [BIK BH3] (H-EGSDALALRLACIGDEMDVSLRAPR-OH; N-terminus and C-terminus assumed),Kd,"BAKΔTM; SPR, 25 °C",> 10000 nM
same,"Binding to BAKΔTM by SPR, in words","BAKΔTM; SPR, immobilized BAKΔTM, 25 °C",did not detect interactions; also recorded: undetectable
same,"Increase of BAK-mediated liposome release, in words",BAK (His6-BAKΔTM),did not appreciably increase
same,Concentration that induced cytochrome c release,"[1]; 90 min at 25 °C, immunoblotting of supernatants and pellets, 10 μM highest concentration tested",10 µM
same,Fold less active than the HRK BH3 peptide in cytochrome c release,"[1]; MCL1 inhibitor S63845 added together with peptide, response to reviewers",about 10 fold
same,"Cytochrome c release, in words",human BAKΔTM,barely induced cytochrome c release
Cc1c(-c2c(-c3ccc(F)o3)sc3ncnc(O[C@H](Cc4ccccc4OCc4ccnn4CC(F)(F)F)C(=O)O)c23)ccc(OCCN2CCN(C)CC2)c1Cl [S63845],"Cytochrome c release, in words",[1]; [2],failed to induce cytochrome c release
CC1(C)CCC(c2ccc(Cl)cc2)=C(CN2CCN(c3ccc(C(=O)NS(=O)(=O)c4ccc(N[C@H](CCN5CCOCC5)CSc5ccccc5)c(S(=O)(=O)C(F)(F)F)c4)cc3)CC2)C1 [navitoclax],"Cytochrome c release, in words",[1]; [2],failed to induce cytochrome c release
same,Effect on BIK or HRK BH3-induced cytochrome c release,[1]; navitoclax applied along with BIK BH3 or HRK BH3,did not enhance
